In patent publication US7915276B2, “Berberrubine derivatives having antifungal activities” (priority 2006, dated 2011):
Values after ≈ are worked out from the molar mass of the structure shown.

Experiments:
[1] = biological target: T1, chitin synthase 2 of Saccharomyces cerevisiae ECY38-38A(pAS6) (Saccharomyces cerevisiae, UniProt P14180); assay: In vitro enzyme assay for chitin synthase 2 of Saccharomyces cerevisiae (enzyme 2); format: biochemical; details: relative to polyoxin D (50% inhibitory activity = value 5)
T1 construct: made in house; host or cells: Saccharomyces cerevisiae ECY38-38A (chs1-23 chs2::LEU2 cal1/csd2) carrying plasmid pAS6, grown in galactose medium; 130,000 x g membrane pellet
T1 sequence (P14180 whole entry): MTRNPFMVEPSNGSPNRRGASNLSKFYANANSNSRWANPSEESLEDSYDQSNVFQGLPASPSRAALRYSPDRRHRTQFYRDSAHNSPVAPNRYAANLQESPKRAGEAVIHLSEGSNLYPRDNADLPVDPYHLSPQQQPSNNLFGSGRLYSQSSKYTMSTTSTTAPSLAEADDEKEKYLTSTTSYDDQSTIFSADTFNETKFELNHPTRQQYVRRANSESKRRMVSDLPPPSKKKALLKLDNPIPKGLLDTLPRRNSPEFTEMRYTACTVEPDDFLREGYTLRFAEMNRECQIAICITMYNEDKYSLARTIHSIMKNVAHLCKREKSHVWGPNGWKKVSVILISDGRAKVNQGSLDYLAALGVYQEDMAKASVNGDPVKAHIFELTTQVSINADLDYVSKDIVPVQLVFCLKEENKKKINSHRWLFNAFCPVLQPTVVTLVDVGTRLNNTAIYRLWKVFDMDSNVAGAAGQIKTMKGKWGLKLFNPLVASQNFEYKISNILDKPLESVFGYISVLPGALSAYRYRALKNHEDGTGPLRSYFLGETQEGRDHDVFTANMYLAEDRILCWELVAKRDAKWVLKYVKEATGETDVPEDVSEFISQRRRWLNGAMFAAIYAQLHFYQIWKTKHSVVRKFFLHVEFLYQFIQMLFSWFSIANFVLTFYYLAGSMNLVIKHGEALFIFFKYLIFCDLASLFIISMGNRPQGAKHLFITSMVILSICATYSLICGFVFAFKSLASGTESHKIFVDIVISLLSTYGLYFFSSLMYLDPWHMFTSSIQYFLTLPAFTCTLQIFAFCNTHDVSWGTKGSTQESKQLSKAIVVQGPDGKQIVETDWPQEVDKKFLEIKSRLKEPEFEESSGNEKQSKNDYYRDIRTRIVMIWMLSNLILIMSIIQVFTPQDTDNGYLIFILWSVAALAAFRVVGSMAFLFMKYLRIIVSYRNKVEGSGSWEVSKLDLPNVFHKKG
Method in brief: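 Values are scores: 5 means 50% inhibition at the same concentration as polyoxin D, lower scores 2- to 16-fold higher concentration, higher scores ½ to ⅛. Radiolabel from 1.1 mM UDP-[14C]-GlcNAc was incorporated into TCA-insoluble chitin over 90 min at 30 °C (pH 7.5 Tris, 2 mM Co2+). The enzyme was a trypsin-activated membrane fraction from CHS2-only S. cerevisiae ECY38-38A(pAS6).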

[2] = biological target: T2, chitin synthase 1 of Candida albicans chs2 Δ chs 3 Δ (Candida albicans, UniProt P23316); assay: In vitro enzyme assay for chitin synthase 1 of Candida albicans (enzyme 1); format: biochemical; details: relative to polyoxin D (50% inhibitory activity = value 5)
T2 construct: Crude enzyme was prepared using the Candida albicans chs2 Δ chs 3 Δ mutant; endogenous in cells; host or cells: Candida albicans chs2Δ/chs2Δ chs3Δ/chs3Δ mutant; 130,000 x g membrane pellet
T2 sequence (P23316 whole entry, stated change not applied): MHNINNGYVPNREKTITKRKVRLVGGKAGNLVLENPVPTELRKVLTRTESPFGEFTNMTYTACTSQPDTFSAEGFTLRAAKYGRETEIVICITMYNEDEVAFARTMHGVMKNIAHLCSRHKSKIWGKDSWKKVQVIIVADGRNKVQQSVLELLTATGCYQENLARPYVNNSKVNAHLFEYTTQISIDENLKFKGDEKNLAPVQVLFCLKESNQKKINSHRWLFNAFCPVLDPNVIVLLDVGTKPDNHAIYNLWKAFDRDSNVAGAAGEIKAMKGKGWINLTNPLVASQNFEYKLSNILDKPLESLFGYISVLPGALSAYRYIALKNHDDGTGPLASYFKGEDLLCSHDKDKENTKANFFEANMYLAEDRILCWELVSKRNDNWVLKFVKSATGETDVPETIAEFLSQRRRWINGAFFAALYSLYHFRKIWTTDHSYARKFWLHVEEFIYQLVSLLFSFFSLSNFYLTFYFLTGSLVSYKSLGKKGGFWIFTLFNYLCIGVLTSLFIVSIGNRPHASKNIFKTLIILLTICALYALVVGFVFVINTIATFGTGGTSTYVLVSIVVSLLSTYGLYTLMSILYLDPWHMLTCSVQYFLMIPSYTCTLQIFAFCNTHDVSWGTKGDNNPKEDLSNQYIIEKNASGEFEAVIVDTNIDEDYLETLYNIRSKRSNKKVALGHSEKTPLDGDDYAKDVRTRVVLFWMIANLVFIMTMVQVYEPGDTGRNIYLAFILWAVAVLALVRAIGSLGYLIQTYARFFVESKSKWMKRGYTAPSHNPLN
Method in brief: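 Trypsin-activated crude membrane chitin synthase 1 from C. albicans chs2Δ chs3Δ was incubated 90 min at 30 °C with 1.1 mM UDP-[14C]GlcNAc and 2 mM cobalt acetate in Tris-HCl pH 7.5. Filtered TCA precipitate was counted by scintillation; values are scores 1–8 against polyoxin D (5 = same concentration).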

[3] = test system: Candida glabrata ATCC 48435; assay: In vitro antifungal activity (MIC), NCCLS method; format: cell-based; details: Candida glabrata ATCC 48435; 48 hours
From the text: (§1) Candida albicans ATCC 10231, Candida lusitaniae ATCC 42720, Candida krusei ATCC 6258, Candida tropicalis ATCC 13803, Candida glabrata ATCC 48435, Candida parapsilosis ATCC 34136, Cryptococcus neoformans ATCC 36556, Aspergillus fumigatus ATCC 16424, Aspergillus flavus ATCC 64025, Aspergillus terreus ATCC 46941 and Mucor ramosissimus ATCC 90286 strains for the MIC (minimum inhibitory concentration) measurement were obtained from ATCC (American Type Culture Collection) in the U.S. The Candida albicans A207(clinical isolate) strain was used by isolating it from the patients.
(§2) The determination of MIC was performed according to the NCCLS (National Committee for Clinical Laboratory Standard) method. Each test sample solution was diluted two-fold and inoculated with a fungal suspension to reach a final inoculum size of 5×10^2 to 2.5×10^3 cell/mL. The Cryptococcus neoformans strain was cultured in the RPMI 1640 medium for 72 hours. Other strains were cultured for 48 hours.

[4] = test system: Candida albicans ATCC 10231; assay: In vitro antifungal activity (MIC), NCCLS method; format: cell-based; details: 48 hours
From the text: as §1, §2

[5] = test system: Mucor ramosissimus ATCC 90286; assay: In vitro antifungal activity (MIC), NCCLS method; format: cell-based; details: 48 hours
From the text: as §1, §2

[6] = test system: Cryptococcus neoformans ATCC 36556; assay: In vitro antifungal activity (MIC), NCCLS method; format: cell-based; details: RPMI 1640 medium, 72 hours
From the text: as §1, §2

[7] = test system: Candida albicans A207 (clinical isolate); assay: In vitro antifungal activity (MIC), NCCLS method; format: cell-based; details: 48 hours
From the text: as §1, §2

[8] = test system: Aspergillus terreus ATCC 46941; assay: In vitro antifungal activity (MIC), NCCLS method; format: cell-based; details: 48 hours
From the text: as §1, §2

[9] = test system: Aspergillus flavus ATCC 64025; assay: In vitro antifungal activity (MIC), NCCLS method; format: cell-based; details: 48 hours
From the text: as §1, §2

[10] = test system: Candida parapsilosis ATCC 34136; assay: In vitro antifungal activity (MIC), NCCLS method; format: cell-based; details: Candida parapsilosis ATCC 34136; 48 hours
From the text: as §1, §2

[11] = test system: Candida krusei ATCC 6258; assay: In vitro antifungal activity (MIC), NCCLS method; format: cell-based; details: 48 hours
From the text: as §1, §2

[12] = test system: Candida tropicalis ATCC 13803; assay: In vitro antifungal activity (MIC), NCCLS method; format: cell-based; details: 48 hours
From the text: as §1, §2

[13] = test system: Candida lusitaniae ATCC 42720; assay: In vitro antifungal activity (MIC), NCCLS method; format: cell-based; details: 48 hours
From the text: as §1, §2

[14] = test system: Aspergillus fumigatus ATCC 16424; assay: In vitro antifungal activity (MIC), NCCLS method; format: cell-based; details: 48 hours
From the text: as §1, §2

Compound	Relative activity Enzyme 2 [1]	Relative activity Enzyme 1 [2]	MIC (minimum inhibitory concentration) [3] [µg/mL]	MIC (minimum inhibitory concentration) [4] [µg/mL]	MIC (minimum inhibitory concentration) [5] [µg/mL]	MIC (minimum inhibitory concentration) [6] [µg/mL]	MIC (minimum inhibitory concentration) [7] [µg/mL]	MIC (minimum inhibitory concentration) [8] [µg/mL]	MIC (minimum inhibitory concentration) [9] [µg/mL]	MIC (minimum inhibitory concentration) [10] [µg/mL]	MIC (minimum inhibitory concentration) [11] [µg/mL]	MIC (minimum inhibitory concentration) [12] [µg/mL]	MIC (minimum inhibitory concentration) [13] [µg/mL]	MIC (minimum inhibitory concentration) [14] [µg/mL]
13-(4-tert-Butylbenzyl)-9-O-octylberberrubine iodide [Compound No. 10]	5 (A compound having the same inhibitory activity as that of polyoxin D at the same concentration was given the value 5)	3 (Compounds having the inhibitory activity at 2-fold, 4-fold, 8-fold and 16-fold higher concentrations than that of polyoxin D were given the values of 4, 3, 2 and 1, respectively)	2	0.25	2	1	0.25	4	4	2	1	0.125	0.5	2
13-(4-tert-Butylbenzyl)-9-O-(6-chlorohexyl)berberrubine chloride [Compound No. 44]	6 (compounds having the inhibitory activity at ½, ¼ and ⅛ lower concentrations than that of polyoxin D were given the values of 6, 7 and 8, respectively)	2 (Compounds having the inhibitory activity at 2-fold, 4-fold, 8-fold and 16-fold higher concentrations than that of polyoxin D were given the values of 4, 3, 2 and 1, respectively)	2	0.5	4	1	0.5	8	8	2	1	0.5	2	2
13-(4-tert-Butylbenzyl)-9-O-(4-tert-butylbenzyl)berberrubine chloride [Compound No. 47]	5 (A compound having the same inhibitory activity as that of polyoxin D at the same concentration was given the value 5)	2 (Compounds having the inhibitory activity at 2-fold, 4-fold, 8-fold and 16-fold higher concentrations than that of polyoxin D were given the values of 4, 3, 2 and 1, respectively)	4	1	8	2	1	8	8	8	4	1	4	4
13-(4-Isopropylbenzyl)-9-O-octylberberrubine chloride [Compound No. 52]	6 (compounds having the inhibitory activity at ½, ¼ and ⅛ lower concentrations than that of polyoxin D were given the values of 6, 7 and 8, respectively)	2 (Compounds having the inhibitory activity at 2-fold, 4-fold, 8-fold and 16-fold higher concentrations than that of polyoxin D were given the values of 4, 3, 2 and 1, respectively)	1	0.25	2	0.5	0.25	4	4	1	1	0.125	0.5	2
13-(4-tert-Butylbenzyl)-9-O-(3-hydroxypropyl)berberrubine iodide [Compound No. 11]	6 (compounds having the inhibitory activity at ½, ¼ and ⅛ lower concentrations than that of polyoxin D were given the values of 6, 7 and 8, respectively)	4 (Compounds having the inhibitory activity at 2-fold, 4-fold, 8-fold and 16-fold higher concentrations than that of polyoxin D were given the values of 4, 3, 2 and 1, respectively)	2	0.5	4	1	0.5	8	8	2	1	0.5	2	2
13-(4-tert-Butylbenzyl)-9-O-crotylberberrubine bromide [Compound No. 14]	5 (A compound having the same inhibitory activity as that of polyoxin D at the same concentration was given the value 5)	2 (Compounds having the inhibitory activity at 2-fold, 4-fold, 8-fold and 16-fold higher concentrations than that of polyoxin D were given the values of 4, 3, 2 and 1, respectively)	4	0.5	4	1	0.5	4	8	4	1	0.5	1	2
C[C@@H]1[C@H](O)[C@@H](C)/C=C/C=C/C=C/C=C/C=C/C=C/C=C/[C@H](O[C@@H]2O[C@H](C)[C@@H](O)[C@H](N)[C@@H]2O)C[C@@H]2O[C@](O)(C[C@@H](O)C[C@@H](O)[C@H](O)CC[C@@H](O)C[C@@H](O)CC(=O)O[C@H]1C)C[C@H](O)[C@H]2C(=O)O [amphotericin B, reference compound]	–	–	1 (≈ 1.08 µM)	0.5 (≈ 0.541 µM)	0.5 (≈ 0.541 µM)	0.125 (≈ 0.135 µM)	0.5 (≈ 0.541 µM)	16 (≈ 17.3 µM)	4 (≈ 4.33 µM)	0.5 (≈ 0.541 µM)	0.5 (≈ 0.541 µM)	0.5 (≈ 0.541 µM)	1 (≈ 1.08 µM)	1 (≈ 1.08 µM)
